Data taken from patent US20170334899A1, “AMINO-SUBSTITUTED ISOTHIAZOLES” (Bayer Pharma Aktiengesellschaft, priority 2014, published 2017).
Where a name gives a salt, the structure may show the parent alone.

Experiments:
CDK2/CycE = biological target: T1, CDK2/CycE (Homo sapiens, UniProt P24941); assay: CDK2/CycE kinase assay (TR-FRET); assay type: biochemical; conditions: avg, read-out: CDK2 avg (IC50 [mol/l])
T1 construct: GST; purchased ProQinase GmbH (Freiburg, Germany); host or cells: insect cells (Sf9)
Procedure, shortened: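 Read-out is a TR-FRET 665/620 nm emission ratio from EDTA-stopped reactions detected with anti-pRB(pSer807/pSer811), Eu-labelled anti-mouse IgG and streptavidin-XL665, scaled between no-enzyme and uninhibited wells. Reaction: Sf9-expressed GST-CDK2/GST-CycE, 15 min compound preincubation, 10 μM ATP, 0.75 μM biotin-peptide, 25 min, 22° C., pH 8.0 Tris buffer.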

[1] = biological target: T2, catalytic domain of human Bub1 (amino acids 704-1085) (Homo sapiens, UniProt O43683); assay: Bub1 kinase assay (TR-FRET); assay type: biochemical; conditions: 10 μM ATP, avg, read-out: Bub1 avg (IC50 [mol/l])
T2 construct: catalytic domain of human Bub1 (amino acids 704-1085); His6 (N); made in house; host or cells: insect cells (Hi5)
Procedure, shortened: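 Readout is the 665/620 nm TR-FRET ratio from anti-phosphoserine antibody, Eu-labelled anti-mouse IgG and streptavidin-XL665, scaled between no-enzyme and uninhibited controls. Reaction: 1 μM biotinylated peptide, 10 μM ATP, 60 min, 22 °C, after 15 min compound preincubation with His6-Bub1 (704-1085, insect-expressed, ~200 ng/ml).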

T2 sequence (O43683 704-1085): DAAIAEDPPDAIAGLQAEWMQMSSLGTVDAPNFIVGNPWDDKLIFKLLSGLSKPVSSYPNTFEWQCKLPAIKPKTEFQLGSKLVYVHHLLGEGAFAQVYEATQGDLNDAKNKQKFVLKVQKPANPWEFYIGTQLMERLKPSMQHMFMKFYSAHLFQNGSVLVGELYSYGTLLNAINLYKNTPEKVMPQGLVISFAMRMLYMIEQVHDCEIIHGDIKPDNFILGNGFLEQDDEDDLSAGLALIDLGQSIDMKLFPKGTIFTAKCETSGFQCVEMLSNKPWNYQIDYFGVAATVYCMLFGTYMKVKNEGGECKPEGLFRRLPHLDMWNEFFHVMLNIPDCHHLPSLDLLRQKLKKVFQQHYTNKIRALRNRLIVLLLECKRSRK

SMILES	IC50 (CDK2/CycE) [µM]	IC50 [1] [µM]
Cc1nsc(Nc2cnc3ccccc3n2)c1C(=O)Nc1cccc(C(=O)N[C@H](C(=O)O)[C@@H](C)O)c1 [Example 105, N-[3-({[3-methyl-5-(quinoxalin-2-ylamino)-1,2-thiazol-4-yl]carbonyl}amino)-benzoyl]threonine]	≥ 20	19
Cc1nsc(Nc2cnc(C(F)(F)F)cn2)c1C(=O)Nc1ccc(OC2CCN(CCF)CC2)nc1 [Example 7, N-(6-{[1-(2-Fluoroethyl)piperidin-4-yl]oxy}pyridin-3-yl)-3-methyl-5-{[5-(trifluoromethyl)pyrazin-2-yl]amino}-1,2-thiazole-4-carboxamide]	≥ 20	≥ 20
Cc1nsc(Nc2cc(C#N)ccn2)c1C(=O)Nc1ccc(Oc2cccnc2)nc1 [Example 119, 5-[(4-Cyanopyridin-2-yl)amino]-3-methyl-N-[6-(pyridin-3-yloxy)pyridin-3-yl]-1,2-thiazole-4-carboxamide]	≥ 20	≥ 20
Cc1nsc(Nc2ccc(C#N)cn2)c1C(=O)Nc1ccc(Oc2cccc(C(F)(F)F)c2)nc1 [Example 118, 5-[(5-Cyanopyridin-2-yl)amino]-3-methyl-N-{6-[3-(trifluoromethyl)phenoxy]pyridin-3-yl}-1,2-thiazole-4-carboxamide]	≥ 20	≥ 20
Cc1nsc(Nc2cnc(C(F)(F)F)cn2)c1C(=O)Nc1ccc(OCC2CCN(C(=O)OC(C)(C)C)C2)nc1 (centres unmarked) [Example 109, tert-Butyl 3-{[(5-{[(3-methyl-5-{[5-(trifluoromethyl)pyrazin-2-yl]amino}-1,2-thiazol-4-yl)carbonyl]amino}pyridin-2-yl)oxy]methyl}pyrrolidine-1-carboxylate]	≥ 20	≥ 20
Cc1nsc(Nc2cnc3ccccc3n2)c1C(=O)Nc1ccc(S(C)(=O)=O)cc1 [Example 115, 3-Methyl-N-[4-(methylsulfonyl)phenyl]-5-(quinoxalin-2-ylamino)-1,2-thiazole-4-carboxamide]	≥ 20	8.9
Cc1nsc(Nc2cnc(C(F)(F)F)cn2)c1C(=O)Nc1ccc(OC2CCN(CCC(F)(F)F)CC2)nc1 [Example 10, 3-Methyl-5-{[5-(trifluoromethyl)pyrazin-2-yl]amino}-N-(6-{[1-(3,3,3-trifluoropropyl)-piperidin-4-yl]oxy}pyridin-3-yl)-1,2-thiazole-4-carboxamide]	≥ 20	≥ 20
Cc1nsc(Nc2cnc(C(F)(F)F)cn2)c1C(=O)Nc1ccc(OC2CCN(CC(F)(F)F)CC2)nc1 [Example 9, -Methyl-N-(6-{[1-(2,2,2-trifluoroethyl)piperidin-4-yl]oxy}pyridin-3-yl)-5-{[5-(trifluoromethyl)pyrazin-2-yl]amino}-1,2-thiazole-4-carboxamide]	≥ 20	≥ 20

The remaining lines, values ahead:

IC50 (CDK2/CycE) [µM]	IC50 [1] [µM]	SMILES
> 20	> 20	Cc1nsc(Nc2cnc(C(F)(F)F)cn2)c1C(=O)Nc1ccc(O[C@@H]2CCN(CCC(F)(F)F)C[C@@H]2F)nc1 [Example 139, N-(6-{[(3S,4R)-3-fluoro-1-(3,3,3-trifluoropropyl)piperidin-4-yl]oxy}pyridin-3-yl)-3-methyl-5-{[5-(trifluoromethyl)pyrazin-2-yl]amino}-1,2-thiazole-4-carboxamide]
> 20	> 20	Cc1nsc(Nc2cnc(C(F)(F)F)cn2)c1C(=O)Nc1ccc(C(=O)N2CCN(CC(F)F)CC2)cc1 [Example 154, N-(4-{[4-(2,2-difluoroethyl)piperazin-1-yl]carbonyl}phenyl)-3-methyl-5-{[5-(trifluoromethyl)pyrazin-2-yl]amino}-1,2-thiazole-4-carboxamide]
> 20	≥ 20	Cc1nsc(Nc2cnc(C(F)(F)F)cn2)c1C(=O)Nc1ccc(OC[C@@H]2CCN(CC(F)F)C2)nc1 [Example 127, N-(6-{[(3R)-1-(2,2-difluoroethyl)pyrrolidin-3-yl]methoxy}pyridin-3-yl)-3-methyl-5-{[5-(trifluoromethyl)pyrazin-2-yl]amino}-1,2-thiazole-4-carboxamide]
> 20	> 20	Cc1nsc(Nc2cncc(C(F)(F)F)n2)c1C(=O)Nc1ccc(C(=O)NC2CCN(CC(F)(F)F)CC2)cc1 [Example 167, 3-methyl-N-(4-{[1-(2,2,2-trifluoroethyl)piperidin-4-yl]carbamoyl}phenyl)-5-{[6-(trifluoromethyl)pyrazin-2-yl]amino}-1,2-thiazole-4-carboxamide]
> 20	> 20	Cc1nsc(Nc2cnc(C(F)(F)F)cn2)c1C(=O)Nc1ccc(O[C@H]2CCN(CC(F)(F)F)C[C@H]2F)nc1 [Example 145, N-(6-{[(3R,4S)-3-fluoro-1-(2,2,2-trifluoroethyl)piperidin-4-yl]oxy}pyridin-3-yl)-3-methyl-5-{[5-(trifluoromethyl)pyrazin-2-yl]amino}-1,2-thiazole-4-carboxamide]
≥ 20	≥ 20	Cc1nsc(Nc2cnc(C(F)(F)F)cn2)c1C(=O)Nc1ccc(OC2CCN(CCC(F)(F)F)CC2)nc1 [Example 426, 3-Methyl-5-{[5-(trifluoromethyl)pyrazin-2-yl]amino}-N-(6-{[1-(3,3,3-trifluoro-propyl)piperidin-4-yl]oxy}pyridin-3-yl)-1,2-thiazole-4-carboxamide, Salt with Hydrochloric Acid]
> 20	> 20	Cc1nsc(Nc2cnc(C(F)(F)F)cn2)c1C(=O)Nc1ccc(O[C@H]2CCN(CC(F)F)C[C@H]2F)nc1 [Example 144, N-(6-{[(3R,4S)-1-(2,2-difluoroethyl)-3-fluoropiperidin-4-yl]oxy}pyridin-3-yl)-3-methyl-5-{[5-(trifluoromethyl)pyrazin-2-yl]amino}-1,2-thiazole-4-carboxamide]
> 20	> 20	Cc1nsc(Nc2cnc3ccccc3n2)c1C(=O)Nc1ccc(C(=O)NC2CN(C(=O)OC(C)(C)C)CC(F)(F)C2)cc1 (centres unmarked) [Example 158, tert-butyl 3,3-difluoro-5-{[4-({[3-methyl-5-(quinoxalin-2-ylamino)-1,2-thiazol-4-yl]carbonyl}amino)benzoyl]amino} piperidine-1-carboxylate]
> 20	> 20	CCCN1CC[C@@H](Oc2ccc(NC(=O)c3c(C)nsc3Nc3cnc(C(F)(F)F)cn3)cn2)[C@@H](F)C1 [Example 140, N-(6-{[(3S,4R)-3-fluoro-1-propylpiperidin-4-yl]oxy}pyridin-3-yl)-3-methyl-5-{[5-(trifluoromethyl)pyrazin-2-yl]amino}-1,2-thiazole-4-carboxamide]
> 20	> 20	Cc1nsc(Nc2ccc(C#N)cn2)c1C(=O)Nc1ccc(NC2CCCN(C(=O)OC(C)(C)C)C2)nc1 (centres unmarked) [Example 171, tert-butyt 3-({5-[({5-[(5-cyanopyridin-2-yl)amino]-3-methyl-1,2-thiazol-4-yl}carbonyl)amino]pyridin-2-yl}amino)piperidine-1-carboxylate]
≥ 20	≥ 20	Cc1nsc(Nc2cnc(C(F)(F)F)cn2)c1C(=O)Nc1ccc(OCC2CCN(CC(F)F)C2)nc1 (centres unmarked) [Example 122, N-(6-{[1-(2,2-difluoroethyl)pyrrolidin-3-yl]methoxy}pyridin-3-yl)-3-methyl-5-{[5-(trifluoromethyl)pyrazin-2-yl]amino}-1,2-thiazole-4-carboxamide]
